Assay results published in patent US20250099434A1, “METHODS OF TREATING AMYLOID RELATED BRAIN DISORDERS USING NOVEL COMPOUNDS AND ANTIBODIES” (T3D Therapeutics, Inc., priority 2022, published 2025).
“And” between values parts separate entries of the source, which are not always exact repeats. Identical values can stand only once. Like-named read-outs stand apart in the source and are kept apart here.

Assays:
[1] = molecular target: T1, human PPARγ (Homo sapiens, UniProt P37231); assay: Human PPAR activation, transient transfection in CV-1 cells (gamma subtype); assay type: cell-based
T1 construct: expressed in transfected cells; host or cells: CV-1 cells
T1 sequence (P37231 1-505): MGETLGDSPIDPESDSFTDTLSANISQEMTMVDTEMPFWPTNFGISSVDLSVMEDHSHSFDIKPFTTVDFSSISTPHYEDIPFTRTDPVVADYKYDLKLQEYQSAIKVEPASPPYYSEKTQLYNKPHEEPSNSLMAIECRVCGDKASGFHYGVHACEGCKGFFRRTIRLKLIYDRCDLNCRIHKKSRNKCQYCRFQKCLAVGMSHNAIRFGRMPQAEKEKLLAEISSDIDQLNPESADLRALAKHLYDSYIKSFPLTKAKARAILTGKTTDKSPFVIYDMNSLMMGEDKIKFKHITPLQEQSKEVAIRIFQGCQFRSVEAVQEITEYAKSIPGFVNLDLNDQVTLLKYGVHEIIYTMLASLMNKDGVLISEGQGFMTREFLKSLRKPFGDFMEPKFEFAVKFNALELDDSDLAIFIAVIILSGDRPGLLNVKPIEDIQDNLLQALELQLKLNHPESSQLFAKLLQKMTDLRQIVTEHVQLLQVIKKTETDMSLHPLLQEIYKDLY
Description: PPAR receptor agonist activity may be determined by conventional screening methods known to the skilled in the art. For example, methods described in U.S. Patent Application Publication No. 2007/0054907, 2008/0262047 and U.S. Pat. No. 7,314,879, which are incorporated by reference in their entireties.
The table summarize the results of studies performed in transfected CV-1 cells with three different lots of Compound of Example 11. […].

[2] = molecular target: P-glycoprotein (P-gp) (Homo sapiens, UniProt P08183); assay: P-gp substrate assessment (Caco-2, verapamil)
[3] = system: Caco-2; assay: Caco-2 permeability with and without P-gp inhibitor verapamil; conditions: absence of a P-gp inhibitor
[4] = molecular target: T2, human PPARδ (Homo sapiens, UniProt Q03181); assay: Human PPAR activation, transient transfection in CV-1 cells (δ subtype); assay type: cell-based
T2 construct: expressed in transfected cells; host or cells: CV-1 cells
T2 sequence (Q03181 1-441): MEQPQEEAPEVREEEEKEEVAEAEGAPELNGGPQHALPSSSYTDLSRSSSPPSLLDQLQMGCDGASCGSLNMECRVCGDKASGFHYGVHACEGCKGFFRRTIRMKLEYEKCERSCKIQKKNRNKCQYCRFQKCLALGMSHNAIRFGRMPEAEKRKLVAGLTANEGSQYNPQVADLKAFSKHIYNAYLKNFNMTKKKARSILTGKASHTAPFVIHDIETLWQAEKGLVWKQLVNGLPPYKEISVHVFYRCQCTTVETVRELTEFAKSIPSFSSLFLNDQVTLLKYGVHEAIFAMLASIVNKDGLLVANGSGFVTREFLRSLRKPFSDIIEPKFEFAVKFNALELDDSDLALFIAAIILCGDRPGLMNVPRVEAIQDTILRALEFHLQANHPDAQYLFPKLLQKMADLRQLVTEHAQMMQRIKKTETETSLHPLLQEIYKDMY

[5] = system: glucose metabolism in the brain
[6] = time point 1.0, individual rats
[7] = time point 3.0, individual rats
[8] = time point 5.0, individual rats
[9] = time point 7.0, individual rats
[10] = time point 12.0, individual rats
[11] = 3 mg, White Matter as Reference Region
[12] = 3 mg, Whole Brain as Reference Region
[13] = 10 mg, White Matter as Reference Region
[14] = 10 mg, Whole Brain as Reference Region
[15] = 30 mg, White Matter as Reference Region
[16] = 30 mg, Whole Brain as Reference Region
[17] = 90 mg, White Matter as Reference Region
[18] = 90 mg, Whole Brain as Reference Region

Chain of P-glycoprotein (P-gp) (P08183 whole entry): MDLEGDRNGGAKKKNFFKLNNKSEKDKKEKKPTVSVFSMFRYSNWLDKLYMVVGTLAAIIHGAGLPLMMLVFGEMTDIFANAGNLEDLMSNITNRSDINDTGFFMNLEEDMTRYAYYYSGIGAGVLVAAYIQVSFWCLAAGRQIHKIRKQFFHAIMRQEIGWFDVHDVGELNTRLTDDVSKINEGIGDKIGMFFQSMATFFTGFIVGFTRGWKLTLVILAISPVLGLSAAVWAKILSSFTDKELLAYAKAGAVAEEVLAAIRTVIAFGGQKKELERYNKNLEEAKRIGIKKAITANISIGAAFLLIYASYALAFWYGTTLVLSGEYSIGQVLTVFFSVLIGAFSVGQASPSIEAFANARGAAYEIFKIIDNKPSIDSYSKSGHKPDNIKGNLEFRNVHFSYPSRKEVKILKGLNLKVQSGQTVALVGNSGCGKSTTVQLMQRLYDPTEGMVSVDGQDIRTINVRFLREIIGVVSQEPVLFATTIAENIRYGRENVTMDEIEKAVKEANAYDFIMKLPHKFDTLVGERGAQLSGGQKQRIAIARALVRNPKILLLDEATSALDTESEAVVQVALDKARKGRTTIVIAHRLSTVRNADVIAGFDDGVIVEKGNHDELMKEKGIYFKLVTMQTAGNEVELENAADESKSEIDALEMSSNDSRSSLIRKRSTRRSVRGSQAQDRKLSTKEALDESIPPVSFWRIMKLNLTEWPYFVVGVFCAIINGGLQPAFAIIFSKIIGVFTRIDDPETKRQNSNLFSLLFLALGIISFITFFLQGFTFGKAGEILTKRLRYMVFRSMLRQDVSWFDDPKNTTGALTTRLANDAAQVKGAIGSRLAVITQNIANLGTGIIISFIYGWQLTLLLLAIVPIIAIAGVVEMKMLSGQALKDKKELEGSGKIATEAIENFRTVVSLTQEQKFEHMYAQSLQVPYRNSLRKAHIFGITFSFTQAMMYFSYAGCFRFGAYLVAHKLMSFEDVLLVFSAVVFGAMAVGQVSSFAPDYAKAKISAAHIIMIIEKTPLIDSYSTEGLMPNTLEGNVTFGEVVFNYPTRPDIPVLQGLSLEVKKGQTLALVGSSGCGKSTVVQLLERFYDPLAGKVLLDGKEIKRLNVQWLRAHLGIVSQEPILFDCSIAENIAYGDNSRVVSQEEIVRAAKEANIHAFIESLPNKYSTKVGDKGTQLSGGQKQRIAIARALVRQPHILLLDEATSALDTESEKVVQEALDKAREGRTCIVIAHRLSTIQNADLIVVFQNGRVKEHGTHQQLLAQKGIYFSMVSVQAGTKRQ

CCc1oc(-c2ccc(OC)cc2)nc1CCOc1ccc2c(c1)CC[C@H]2CC(=O)[O-].[Na+] [Example 11, Sodium (S)-2-(5-(2-(5-ethyl-2-(4-methoxyphenyl)oxazol-4-yl)ethoxy)-2,3-dihydro-1H-inden-1-yl)acetate]
B/P Ratio [6]: 0.22 and 0.36 and 0.51
Brain Tissue Cone. [6]: 226 ng/g and 161 ng/g and 101 ng/g
Average (B/P Ratio) (time point 1.0, three rats): 0.361
B/P Ratio [7]: 0.26 and 0.21 and 0.19
Brain Tissue Cone. [7]: 234 ng/g and 269 ng/g and 274 ng/g
Plasma Conc. [7]: 1270 ng/mL and 1430 ng/mL
Average (B/P Ratio) (time point 3.0, three rats): 0.220
B/P Ratio [8]: 0.17 and 0.18 and 0.16
Brain Tissue Cone. [8]: 208 ng/g and 247 ng/g and 333 ng/g
Plasma Conc. [8]: 1260 ng/mL and 1340 ng/mL and 2040 ng/mL
Average (B/P Ratio) (time point 5.0, three rats): 0.171
B/P Ratio [9]: 0.16 and 0.35 and 0.47
Brain Tissue Cone. [9]: 203 ng/g and 216 ng/g
Average (B/P Ratio) (time point 7.0, three rats): 0.328
B/P Ratio [10]: 0.30 and 0.44 and 0.31
Brain Tissue Cone. [10]: 104 ng/g and 114 ng/g and 117 ng/g
Plasma Conc. [10]: 345 ng/mL and 259 ng/mL and 377 ng/mL
Average (B/P Ratio) (time point 12.0, three rats): 0.350
Peak effect PPARγ [1]: 29.49
substrate for P-gp [2]: not a substrate for P-gp
Papparent [3]: 114.4 ×10⁻⁶ cm/s
Peak effect PPARδ [4]: 17.68
greater potency in activating human PPARδ subtype over human PPARγ subtype [4]: 15 fold
Δ R CMRgI (EOT-BL) Sensory Motor Cortex Left, Ave [5, 11]: −0.0005
Δ R CMRgI (EOT-BL) Sensory Motor Cortex Right, Ave [5, 11]: −0.0151
Δ R CMRgI (EOT-BL) Visual Cortex Left, Ave [5, 11]: −0.0219
Δ R CMRgI (EOT-BL) Visual Cortex Right, Ave [5, 11]: −0.0272
Δ R CMRgI (EOT-BL) Sensory Motor Cortex Left, Ave [5, 12]: 0.0152
Δ R CMRgI (EOT-BL) Sensory Motor Cortex Right, Ave [5, 12]: −0.0037
Δ R CMRgI (EOT-BL) Visual Cortex Left, Ave [5, 12]: −0.0196
Δ R CMRgI (EOT-BL) Visual Cortex Right, Ave [5, 12]: −0.0269
spatial extent of ROSDs with positive ΔR CMRgl (EOT-BL) relative to Whole Brain ([5]; 10 mg): 70 voxels
Δ R CMRgI (EOT-BL) Sensory Motor Cortex Left, Ave [5, 13]: 0.0005
Δ R CMRgI (EOT-BL) Sensory Motor Cortex Right, Ave [5, 13]: −0.0005
Δ R CMRgI (EOT-BL) Visual Cortex Left, Ave [5, 13]: −0.0014
Δ R CMRgI (EOT-BL) Visual Cortex Right, Ave [5, 13]: −0.0033
Δ R CMRgI (EOT-BL) Sensory Motor Cortex Left, Ave [5, 14]: 0.0008
Δ R CMRgI (EOT-BL) Sensory Motor Cortex Right, Ave [5, 14]: 0.0003
Δ R CMRgI (EOT-BL) Visual Cortex Left, Ave [5, 14]: −0.0032
Δ R CMRgI (EOT-BL) Visual Cortex Right, Ave [5, 14]: −0.0053
Δ R CMRgI (EOT-BL) Sensory Motor Cortex Left, Ave [5, 15]: −0.0040
Δ R CMRgI (EOT-BL) Sensory Motor Cortex Right, Ave [5, 15]: −0.0229
Δ R CMRgI (EOT-BL) Visual Cortex Left, Ave [5, 15]: −0.0314
Δ R CMRgI (EOT-BL) Visual Cortex Right, Ave [5, 15]: −0.0408
Δ R CMRgI (EOT-BL) Sensory Motor Cortex Left, Ave [5, 16]: 0.0213
Δ R CMRgI (EOT-BL) Sensory Motor Cortex Right, Ave [5, 16]: −0.0040
Δ R CMRgI (EOT-BL) Visual Cortex Left, Ave [5, 16]: −0.0158
Δ R CMRgI (EOT-BL) Visual Cortex Right, Ave [5, 16]: −0.0271
Δ R CMRgI (EOT-BL) Sensory Motor Cortex Left, Ave [5, 17]: −0.0076
Δ R CMRgI (EOT-BL) Sensory Motor Cortex Right, Ave [5, 17]: −0.0078
Δ R CMRgI (EOT-BL) Visual Cortex Left, Ave [5, 17]: −0.0775
Δ R CMRgI (EOT-BL) Visual Cortex Right, Ave [5, 17]: −0.0730
Δ R CMRgI (EOT-BL) Sensory Motor Cortex Left, Ave [5, 18]: 0.0244
Δ R CMRgI (EOT-BL) Sensory Motor Cortex Right, Ave [5, 18]: 0.0251
Δ R CMRgI (EOT-BL) Visual Cortex Left, Ave [5, 18]: −0.0685
Δ R CMRgI (EOT-BL) Visual Cortex Right, Ave [5, 18]: −0.0604
dose dependence of effect on FDG-PET outcomes ([5]; 3 to 90 mg): dose-dependent
effect on glucose metabolism in the brain ([5]; two week treatment): altered the glucose metabolism in the brain
Blood Brain Barrier penetration inferred from FDG-PET ([5]; voxel-wise (SPM) analysis, even at the lowest 3 mg): penetrates the Blood Brain Barrier (BBB)
